melting point [°C]	SMILES
134 to 136	CCC(CC(=O)OC)Sc1c(C(N)=O)sc2ccc(OC)cc12 (stereo unspecified)
103 to 105	COc1cccc(OCC(O)c2cccc(OCc3ccc4ccccc4n3)c2)c1 (stereo unspecified)
205 to 207	CC(=O)Nc1cccc(-c2ccnc3c(Cc4ccccc4)cnn23)c1
79 to 81	COC(=O)c1ccc2c(c1)SCCC2O (stereo unspecified)
90 to 93	NCc1ccc(C(=O)Nc2ccc(-n3nc(C(F)(F)F)cc3C(F)(F)F)cc2)c(Cl)c1
249 to 250	Cc1cccn2c(C)c(-c3ccc4c(c3)NC(=O)C(C)O4)nc12 (stereo unspecified)
70 to 72	Cc1cc2c(c3occ(-c4ccc(C(C)C)cc4)c13)CCC2
90 to 91	COC(=O)c1cc(N)c(C)s1
112 to 114	COc1cc(CCl)ccc1OCc1nc(-c2cccc(OS(C)(=O)=O)c2)oc1C
272	COc1ccc(C(=O)[NH+]([O-])c2c(Cl)cncc2Cl)c2c1oc1ccc(C(F)(F)F)cc12 (stereo unspecified)
118 to 119	CCOC(=O)CN1CC(=O)N(C)c2ccc(N)cc2C1=O
> 250	Cn1c(=O)c(C(=O)O)c(-c2ccccc2Cl)c2ccncc21
120	CCOCCOc1cc(C(O)C#Cc2ccc(C(=O)O)c(O)c2)cc2c1C(C)(C)CCC2(C)C (stereo unspecified)
129 to 131	Cc1cnc(-c2ccc(CBr)cc2)nc1
36.5	CCCCCCCC(=O)c1ccc(CCI)cc1
248	O=C(Nc1cccc(S(=O)(=O)NC2CC2)c1)c1cnn2c(C(F)(F)F)cc(-c3ccc(Cl)c(Cl)c3)nc12
164 to 167	CCCCCCCN(C)C(=O)Nc1ccc(F)cc1NC(=O)c1cc(C(C)(C)C)c(O)c(C(C)(C)C)c1
> 275	Cc1cccc(-n2c(-c3sc(NC(=O)c4ccccc4)nc3-c3ccccc3)nc3ccccc3c2=O)c1
160 to 163	CC(=O)NCc1ccc(CN2CCN(c3ncc(Br)s3)CC2)cc1
122 to 133	Cn1cc(C(=O)C(=O)Cl)c2ccccc21

melting point [°C]	SMILES
108	CC(COc1ccc2ccc(N)nc2n1)CN(C)C (stereo unspecified)
199 to 201	Nc1ccccc1C1=NN(c2ccc(Cl)cc2)C(=O)C1
168 to 170	COCCc1nc2c(N)nc3c(c2n1CCCNC(=O)c1ccccc1)CCCC3
102 to 103	O=C(CCc1ccc(NC(=O)C(F)(F)F)c([N+](=O)[O-])c1)N1CCCCC1
233	O=c1[nH]c2sccc2c(=O)o1
189 to 190	COC(=O)c1cn(C(c2ccccc2)(c2ccccc2)c2ccccc2)nn1
210	O=c1[nH]ncc2cc(/C=C\c3ccc(O)cc3)ccc12
90 to 95	Nc1ccc([N+](=O)[O-])cc1I
84 to 86	CCCCCCCCCCCCCCOCC(COCCCCCCCCCCCCCC)(CC(=O)O)CC(=O)O
91 to 92	O=C(c1ccccc1)c1ccc(-c2nc(COc3ccc(CCCCn4ccnc4)cc3)co2)cc1
196 to 197	COc1cc2c3c(n(C)c(=O)c2cc1OC)-c1cc2c(cc1C3=CCCCCBr)OCO2
157 to 158	CC(=O)Nc1sc(C(=O)OCc2ccccc2)c(C)c1C(=O)OC(C)(C)C
133	COc1ccc(N2CCN(c3cccnn3)CC2)cc1
113 to 115	O=C(NOCC(O)CO)c1ccc(F)c(F)c1Nc1ccccc1F (stereo unspecified)
161 to 162	O=C(O)Cn1ccc(=O)n(Cc2cccc([N+](=O)[O-])c2)c1=O
252 to 254	NC(CSCc1ccccc1C(=O)O)C(=O)O (stereo unspecified)
161 to 163	CCOC(=O)C(O)CCn1cnc2c(=O)[nH]c(N)nc21 (stereo unspecified)
156 to 158	CC1(C)NC(=O)c2ccc(OCCBr)cc2O1
114 to 115	CCSc1cnc(Oc2ccc(Cl)c(Cl)c2)c(C#N)c1

Continued, molecule first:

SMILES	melting point [°C]
CCOc1ccc2[nH]c(=O)n(C3CCCC3)c2c1	75
N#Cc1ccc(C(=O)c2ccc(OC3OCC(O)C(O)C3O)cc2)cc1 (stereo unspecified)	189
Cn1c(C(F)(F)F)cc(C#N)c1-c1ccc2ccccc2c1	134
NS(=O)(=O)c1cccc(-c2noc(-c3cnn4c(C(F)(F)F)cc(-c5ccc(C(F)(F)F)c(OCC(F)(F)F)c5)nc34)n2)c1	250
CC(O)CN1CCNC1=S (stereo unspecified)	101 to 102
CCc1cnc(N2CCC(c3nc4cc(-c5ccc(-n6cnnn6)cc5F)ccc4o3)CC2)nc1	188 to 192
Cc1cc(-c2nc3cc(OC(C)C)cc(OC(C)C)c3c(=O)[nH]2)cc(C)c1OCCN1CCCC1	65 to 68
COC(=O)CCc1cc2nc(Cl)ccc2n1S(=O)(=O)c1cccc(OC(F)(F)F)c1	102
CC(=O)N1CCN(c2ccc(Nc3nccc(-c4sc(-c5cccnc5)nc4C)n3)cc2)CC1	123 to 125
O=C(NCCCCCn1cncn1)c1ccc(Cl)cc1	68 to 70
O=[N+]([O-])c1cc(C(F)(F)F)ccc1C(Br)c1cnoc1C1CC1 (stereo unspecified)	146
N=C(NNC(=O)c1ccccc1)C(Cl)(Cl)Cl	170 to 172
O=C(NCCO)/C(=C/c1ccc(OC(F)(F)F)cc1)NC(=O)c1ccc(OCCCC(F)(F)F)cc1	160 to 163
Cc1cccc(C(=O)C=CN(C)C)n1	97 to 98
CCC(CC)Oc1cc(C)nc(Nc2c(C)cc(C)cc2C)c1C	132 to 133
Cc1cn(-c2nccc3[nH]c(=O)ccc23)cn1	257 to 259
c1csc(-c2cn([C@H]3CN4CCC3CC4)nn2)c1	137
CC1(N2Cc3cc(CNC(=O)c4ccc(OC(F)(F)F)cc4)ccc3C2=O)CCC(=O)NC1=O (stereo unspecified)	224 to 226
CS(=O)(=O)OCC(CC1CCCCC1)c1ccc(Cl)cc1Cl (stereo unspecified)	105
CC(=O)Nc1nc(CCc2ccc(CN3CCC(NC(=O)OC(C)(C)C)C3)cc2)cs1 (stereo unspecified)	131 to 132
CS(=O)(=O)c1ccc(-c2cc(F)c(F)cc2-c2ccc(F)cc2)cc1	148

SMILES	melting point [°C]
CSC(=NC(=O)c1ccccc1)Nc1c(Cl)cccc1Cl	127 to 129
O=[N+]([O-])c1cccc(-c2nc(Nc3cccc(Cl)c3)c3cc[nH]c3n2)c1	> 250
COc1ccc(COc2ccc(C(=O)O)cc2OCc2ccc(OC)cc2)cc1	171 to 172
CCCn1cnc(C(N)=O)c1N	241 to 243
N#CC(C(=O)c1ccc([N+](=O)[O-])cc1)=C1CCCCN1	182
COc1ccc(CNn2c(=O)ccc3cnc(S(C)(=O)=O)nc32)cc1Cl	212 to 214
Cc1ccccc1C1CC(=O)CC(c2ccccc2C)N1C (stereo unspecified)	155 to 157
O=C1NCCC[C@@H]1NS(=O)(=O)c1ccccc1F	180 to 183
Cc1nc(-c2ccc3c(c2)CCCC3)c(Br)o1	97 to 98
CC1COc2c(Br)c(F)cc3c(=O)c(C(=O)O)cn1c23 (stereo unspecified)	> 250
COc1ccc2nc(NC(=O)c3nc4ccccc4[nH]3)sc2c1	246
OCCCOC(c1ccccc1)c1ccccc1	140 to 141
CCOC(=O)C(C(=O)Nc1cc(OC)c(OC)c(OC)c1)(c1ccccc1)c1ccccc1	109 to 111
CCOC(=O)C1CCNCC1c1nc2cc(-c3ccc(OC)cc3)nnc2c2ccccc12 (stereo unspecified)	160 to 161
Cc1oc(-c2ccccc2)nc1CCc1nc(CCl)co1	71 to 72
CN1CCC(C2(O)c3ccccc3CCn3cc(-c4ccccc4)nc32)CC1 (stereo unspecified)	225
CC(=O)Nc1nnc(C(F)(F)C(Cl)Cl)s1	182 to 184
COc1c(C(=O)O)sc(C(F)(F)F)c1SCc1ccccc1	146 to 147
CCN1CC2CCCC2C1=C[N+](=O)[O-] (stereo unspecified)	86
O=S(=O)(NCc1ccccc1)c1ccc(N(OCC2CCCCC2)c2ncc3[nH]cnc3n2)cc1	222 to 224
NC(=O)C1CCc2ccc([N+](=O)[O-])cc21 (stereo unspecified)	144 to 145

SMILES	melting point [°C]
COc1nnc(-c2cc3c([nH]c2=O)CCN(Cc2ccccc2)C3)o1	176 to 178
CON=C1CCCc2cc(OCCCOc3c(Cl)cc(OCC=C(Cl)Cl)cc3Cl)ccc21	75 to 77
OC[C@@H]1CC[C@H](CO)O1	128 to 129
CCOC(=O)C(CBr)=NOC(=O)c1ccc(Cl)cc1	82 to 84.5
Cc1cnccc1-c1sc(NC(=O)c2ccncc2)nc1-c1ccco1	156 to 157
CCCCN(CCCC)c1nc(-c2ccc(C(C)(C)C)cc2)cs1	48.5 to 49.5
Nc1cc(C(=O)O)cc(SCc2ccccn2)c1-c1ccccc1	210 to 211
O=C1CC(=O)OC2(O1)SC=CS2	59 to 60
COc1ccc(NC(NC(c2ccc(CC(C)(C)C)s2)C2CCCCC2)=C2C(=O)OC(C)(C)OC2=O)c(OC)c1 (stereo unspecified)	143 to 145
O=C(O)c1ccc2ccc(C(F)(F)F)nc2c1O	209 to 211
CCOC(=O)CCCCCCC1C(=O)NC(=O)N1CCC(=O)C1CCCCC1 (stereo unspecified)	77.5 to 78.5
CCCN1C(=O)C(NC(=O)Nc2cccc(C)c2)N=C(N(C)C2CCCCC2)c2ccccc21 (single isomer, unassigned; (+))	126 to 127
CC(=O)OC1=CC2=CCC3C4CC(C)C(O)(CC(=O)OC(=O)C(C)(C)C)C4(C)CC4OC43C2(C)C=C1 (stereo unspecified)	108 to 120
COc1ccc(N2CCN(c3c(C)c(C)c4c(c3C)C(O)(c3ccco3)C(C)(C)O4)CC2)cc1 (stereo unspecified)	111 to 112
COC(=O)c1cccc(COc2cc(Cl)cnc2N)c1	148 to 150
CCCCn1c(=O)c(NC(=O)Nc2c(C(C)C)cc(CO)cc2C(C)C)c(-c2cccc(OC)c2)c2cccnc21	122 to 123
CC(C)n1nc2ccc(Cl)c([N+](=O)[O-])c2n1	67 to 70
CCOC(=O)Cn1ncc(-c2ccccn2)c1-c1ccccc1	98 to 100
O=C(c1cc(-c2ccccc2)c(=O)n2c1-c1sccc1C2)N1CCOCC1	225 to 227
Oc1ccc2c(c1)C13CCCCC1N(C2)N(CC1CC1)CC3 (single isomer, unassigned; (+))	151 to 153

— a melting point compilation (Tetko et al.; mined from patent text by program, amines drawn as free bases though some values may be those of a salt)
